Data set [1] relates to Recombinant Respiratory Syncytial virus strain A2 containing the firefly luciferase reporter (RSV-Fluc). Description: microbe, parasite or virus in culture. In kind it is cell-based. The conditions noted are these: human respiratory syncytial virus, NHBE.
Another data set has as its system SARS-CoV-2. In words: microbe, parasite or virus in culture. In kind it is cell-based.
A further data set can be described thus: MT4 cytotoxicity (CC50). The conditions noted are these: human, MT4 cells.
The mark [2] stands for this setting: 72 h, read-out: RSV-Fluc EC50 (NHBE), NHBE cells, three days, Table 2.
Setting [3] is: Severe acute respiratory syndrome coronavirus 2, read-out: SARS EC50.

Here are results for 17 molecules from US12030904B2 (priority 2020, dated 2024).

Read-outs that look alike come from different tables or passages of the source.

The EC50 is the midpoint of the concentration-response curve. As a reminder, the CC50 is the concentration that lowers cell viability or growth by half. On to `CCCCCCCCCCCCCCCCCCOC[C@H](COP(=O)(O)OC[C@H]1O[C@@](C#N)(c2ccc3c(N)ncnn23)[C@H](O)[C@@H]1O)OCc1ccc(F)c(Cl)c1` [Example 17], for which the EC50 in data set [1] (72 h, read-out: RSV-Fluc EC50 (NHBE), NHBE cells, three days, Table 1) worked out at 20 nM; in the data set on SARS-CoV-2 (Severe acute respiratory syndrome coronavirus 2, 48 h, read-out: SARS-CoV-2 EC50), 690 nM. The molecule further gave a CC50 in “MT4 cytotoxicity (CC50)” (MT4 CC50, Table 1a) of 2100 nM.
In the case of `CCCCCCCCCCCCCCCCCCOC[C@H](COP(=O)(O)OC[C@H]1O[C@@](C#N)(c2ccc3c(N)ncnn23)[C@H](O)[C@@H]1O)OCc1cc(F)cc(C(F)(F)F)c1` [Example 19, ((2R,3S,4R,5R)-5-(4-aminopyrrolo[2,1-f][1,2,4]triazin-7-yl)-5-cyano-3,4-dihydroxytetrahydrofuran-2-yl)methyl ((R)-2-((3-fluoro-5-(trifluoromethyl)benzyl)oxy)-3-(octadecyloxy)propyl) hydrogen phosphate], the EC50 in data set [1] (setting [2]) stood at 180 nM; in data set [1] (read-out: RSV EC50, Table 2a) it was 182 nM; in the data set on SARS-CoV-2 (setting [3]) it was 2800 nM. In the data set “MT4 cytotoxicity (CC50)” (MT4 CC50, Table 2a), this molecule had a CC50 of 541 nM.
The matching figures for `CCCCCCCCCCCCCCCCCCOC[C@H](COP(=O)(O)OC[C@H]1O[C@@](C#N)(c2ccc3c(N)ncnn23)[C@H](O)[C@@H]1O)OCc1ccsc1` [Example 20, ((2R,3S,4R,5R)-5-(4-aminopyrrolo[2,1-f][1,2,4]triazin-7-yl)-5-cyano-3,4-dihydroxytetrahydrofuran-2-yl)methyl ((R)-3-(octadecyloxy)-2-(thiophen-3-ylmethoxy)propyl) hydrogen phosphate]: 76 nM, 76 nM, 264 nM and 13200 nM.
The matching figures for `CCCCCCCCCCCCCCCCCCOC[C@](C)(COP(=O)(O)OC[C@H]1O[C@@](C#N)(c2ccc3c(N)ncnn23)[C@H](O)[C@@H]1O)OCc1ccccc1` [Example 21, ((2R,3S,4R,5R)-5-(4-aminopyrrolo[2,1-f][1,2,4]triazin-7-yl)-5-cyano-3,4-dihydroxytetrahydrofuran-2-yl)methyl ((R)-2-(benzyloxy)-2-methyl-3-(octadecyloxy)propyl) hydrogen phosphate]: 76 nM, 77 nM, 1740 nM and 50000 nM.
The corresponding values for `CCCCCCCCCCCCCCCCCCOC[C@@H](CCc1ccccc1)COP(=O)(O)OC[C@H]1O[C@@](C#N)(c2ccc3c(N)ncnn23)[C@H](O)[C@@H]1O` [Example 22, ((2R,3S,4R,5R)-5-(4-aminopyrrolo[2,1-f][1,2,4]triazin-7-yl)-5-cyano-3,4-dihydroxytetrahydrofuran-2-yl)methyl ((R)-2-((octadecyloxy)methyl)-4-phenylbutyl) hydrogen phosphate] are 160 nM, 158 nM, 5220 nM and 26400 nM.
On to `CCCCCCCCCCCCCCCCCCOC[C@H](COP(=O)(O)OC[C@H]1O[C@@](C#N)(c2ccc3c(N)ncnn23)[C@H](O)[C@@H]1O)OCc1ccc(C#N)c(Cl)c1` [Example 23, ((2R,3S,4R,5R)-5-(4-aminopyrrolo[2,1-f][1,2,4]triazin-7-yl)-5-cyano-3,4-dihydroxytetrahydrofuran-2-yl)methyl ((R)-2-((3-chloro-4-cyanobenzyl)oxy)-3-(octadecyloxy)propyl) hydrogen phosphate], for which the EC50 in data set [1] (setting [2]) turned out to be 30 nM; in data set [1] (read-out: RSV EC50, Table 2a) it was 30 nM; in the data set with SARS-CoV-2 (setting [3]), 459 nM. This molecule showed a CC50 in the data set “MT4 cytotoxicity (CC50)” (MT4 CC50, Table 2a) of 723 nM.
Take `CC(C)CCCCCCCCCCCCCCOC[C@H](COP(=O)(O)OC[C@H]1O[C@@](C#N)(c2ccc3c(N)ncnn23)[C@H](O)[C@@H]1O)OCc1ccccc1` [Example 24, ((2R,3S,4R,5R)-5-(4-aminopyrrolo[2,1-f][1,2,4]triazin-7-yl)-5-cyano-3,4-dihydroxytetrahydrofuran-2-yl)methyl ((R)-2-(benzyloxy)-3-((15-methylhexadecyl)oxy)propyl) hydrogen phosphate]: the concentration for a half-maximal effect (EC50) in data set [1] (setting [2]) came out at 42 nM; in data set [1] (read-out: RSV EC50, Table 2a) it was 42 nM; with SARS-CoV-2 (setting [3]), 3320 nM. In addition, the CC50 in the data set “MT4 cytotoxicity (CC50)” (MT4 CC50, Table 2a) is 2200 nM.
As for `CCCCCCCCCCCCCCCCOCCCCOP(=O)(O)OC[C@H]1O[C@@](C#N)(c2ccc3c(N)ncnn23)[C@H](O)[C@@H]1O` [Example 25, ((2R,3S,4R,5R)-5-(4-aminopyrrolo[2,1-f][1,2,4]triazin-7-yl)-5-cyano-3,4-dihydroxytetrahydrofuran-2-yl)methyl (4-(hexadecyloxy)butyl) hydrogen phosphate], the EC50 in data set [1] (setting [2]) came to 70 nM; in data set [1] (read-out: RSV EC50, Table 2a) it was 263 nM; in the data set on SARS-CoV-2 (setting [3]), 7460 nM. Also, in “MT4 cytotoxicity (CC50)” (MT4 CC50, Table 2a), the CC50 is 48900 nM.
The corresponding values for `CCCCCCCCCCCCCCCCCCOCC(COc1ccccc1)COP(=O)(O)OC[C@H]1O[C@@](C#N)(c2ccc3c(N)ncnn23)[C@H](O)[C@@H]1O` (stereo partly drawn) [Example 29, ((2R,3S,4R,5R)-5-(4-aminopyrrolo[2,1-f][1,2,4]triazin-7-yl)-5-cyano-3,4-dihydroxytetrahydrofuran-2-yl)methyl (3-(octadecyloxy)-2-(phenoxymethyl)propyl) hydrogen phosphate] are 140 nM, 140 nM, 3330 nM and 6160 nM.
With `CCCCCCCCCCCCCCCCCCOC[C@H](COP(=O)(O)OC[C@H]1O[C@@](C#N)(c2ccc3c(N)ncnn23)[C@H](O)[C@@H]1O)Oc1cccc(C#N)c1` [Example 30, ((2R,3S,4R,5R)-5-(4-aminopyrrolo[2,1-f][1,2,4]triazin-7-yl)-5-cyano-3,4-dihydroxytetrahydrofuran-2-yl)methyl ((R)-2-(3-cyanophenoxy)-3-(octadecyloxy)propyl) hydrogen phosphate], the EC50 amounted to 17 nM in data set [1] (setting [2]); 17 nM in data set [1] (read-out: RSV EC50, Table 2a); 97 nM with SARS-CoV-2 (setting [3]). For the same molecule, in “MT4 cytotoxicity (CC50)” (MT4 CC50, Table 2a), the CC50 turned out to be 188 nM.
As for `CCCCCCCCCCCCCCCCCCOC[C@H](COP(=O)(O)OC[C@H]1O[C@@](C#N)(c2ccc3c(N)ncnn23)[C@H](O)[C@@H]1O)Oc1cc(F)cc(C#N)c1` [Example 31, ((2R,3S,4R,5R)-5-(4-aminopyrrolo[2,1-f][1,2,4]triazin-7-yl)-5-cyano-3,4-dihydroxytetrahydrofuran-2-yl)methyl ((R)-2-(3-cyano-5-fluorophenoxy)-3-(octadecyloxy)propyl) hydrogen phosphate], the EC50 in data set [1] (read-out: RSV EC50, Table 2a) came out at 21 nM; in the data set on SARS-CoV-2 (setting [3]), 86 nM. The CC50 in “MT4 cytotoxicity (CC50)” (MT4 CC50, Table 2a) worked out at 195 nM.
Turning to `CCCCCCCCCCCCCCCCCCOC[C@H](COP(=O)(O)OC[C@H]1O[C@@](C#N)(c2ccc3c(N)ncnn23)[C@H](O)[C@@H]1O)OCc1cccc(C(F)F)c1` [Example 32, ((2R,3S,4R,5R)-5-(4-aminopyrrolo[2,1-f][1,2,4]triazin-7-yl)-5-cyano-3,4-dihydroxytetrahydrofuran-2-yl)methyl ((R)-2-((3-(difluoromethyl)benzyl)oxy)-3-(octadecyloxy)propyl) hydrogen phosphate], the EC50 in data set [1] (read-out: RSV EC50, Table 2a) turned out to be 64 nM; in the data set on SARS-CoV-2 (setting [3]) it was 3040 nM. This molecule also came in with a CC50 in the data set “MT4 cytotoxicity (CC50)” (MT4 CC50, Table 2a) of 2660 nM.
The matching figures for `CCCCCCCCCCCCCCCCCCOC[C@H](COP(=O)(O)OC[C@H]1O[C@@](C#N)(c2ccc3c(N)ncnn23)[C@H](O)[C@@H]1O)OCc1ccc(C(F)F)cc1` [Example 33, ((2R,3S,4R,5R)-5-(4-aminopyrrolo[2,1-f][1,2,4]triazin-7-yl)-5-cyano-3,4-dihydroxytetrahydrofuran-2-yl)methyl ((R)-2-((4-(difluoromethyl)benzyl)oxy)-3-(octadecyloxy)propyl) hydrogen phosphate]: 77 nM, 3020 nM and 8850 nM.
The matching figures for `CCCCCCCCCCCCCCCCCOC[C@H](COP(=O)(O)OC[C@H]1O[C@@](C#N)(c2ccc3c(N)ncnn23)[C@H](O)[C@@H]1O)OCc1cccc(C#N)c1` [Example 34, ((2R,3S,4R,5R)-5-(4-aminopyrrolo[2,1-f][1,2,4]triazin-7-yl)-5-cyano-3,4-dihydroxytetrahydrofuran-2-yl)methyl ((R)-2-((3-cyanobenzyl)oxy)-3-(heptadecyloxy)propyl) hydrogen phosphate]: 25 nM, 582 nM and 550 nM.
The corresponding values for `CCCCCCCCCCCCCCCCCOC[C@H](COP(=O)(O)OC[C@H]1O[C@@](C#N)(c2ccc3c(N)ncnn23)[C@H](O)[C@@H]1O)OCc1cc(F)cc(C#N)c1` [Example 35, ((2R,3S,4R,5R)-5-(4-aminopyrrolo[2,1-f][1,2,4]triazin-7-yl)-5-cyano-3,4-dihydroxytetrahydrofuran-2-yl)methyl ((R)-2-((3-cyano-5-fluorobenzyl)oxy)-3-(heptadecyloxy)propyl) hydrogen phosphate] are 40 nM, 112 nM and 425 nM.
As for `CCCCCCCCCCCCCCCCCOC[C@H](COP(=O)(O)OC[C@H]1O[C@@](C#N)(c2ccc3c(N)ncnn23)[C@H](O)[C@@H]1O)OCc1ccc(C#N)cc1` [Example 36, ((2R,3S,4R,5R)-5-(4-aminopyrrolo[2,1-f][1,2,4]triazin-7-yl)-5-cyano-3,4-dihydroxytetrahydrofuran-2-yl)methyl ((R)-2-((4-cyanobenzyl)oxy)-3-(heptadecyloxy)propyl) hydrogen phosphate], the EC50 stood at 17 nM in data set [1] (read-out: RSV EC50, Table 2a) and 404 nM in the data set on SARS-CoV-2 (setting [3]). This molecule also gave a CC50 in the data set “MT4 cytotoxicity (CC50)” (MT4 CC50, Table 2a) of 530 nM.
The corresponding values for `CCCCCCCCCCCCCCCCCOC[C@H](COP(=O)(O)OC[C@H]1O[C@@](C#N)(c2ccc3c(N)ncnn23)[C@H](O)[C@@H]1O)OCc1ccc(OC)cc1` [Example 37, ((2R,3S,4R,5R)-5-(4-aminopyrrolo[2,1-f][1,2,4]triazin-7-yl)-5-cyano-3,4-dihydroxytetrahydrofuran-2-yl)methyl ((R)-3-(heptadecyloxy)-2-((4-methoxybenzyl)oxy)propyl) hydrogen phosphate] are 39 nM, 371 nM and 1580 nM.
